# According to ChEMBL document CHEMBL5038623, “Synthesis and bioactivities of new N-terminal dipeptide mimetics with aromatic amide moiety: Broad-spectrum antibacterial activity and high antineoplastic activity” (Eur J Med Chem, 2022):
# The source made the active and inactive calls. The rule behind the calls is not given here.
# Key:
# Escherichia coli [1] = experiment: Antibacterial activity against Escherichia coli ATCC25922 assessed as reduction in microbial growth after 24 hrs by broth dilution method; type: functional; details: ATCC 25922
# [2] = Hemolytic activity in rabbit RBC measured after 1 hrs by microplate reader assay; type: toxicity, cell-based, Oryctolagus cuniculus, Erythrocyte; details: rabbit red blood cells (RBC)
# Escherichia coli [3] = experiment: Antibacterial activity against Escherichia coli ATCC25922 assessed as zone of inhibition incubated for 12 hrs by disc diffusion method; type: functional, ATCC 25922
# Staphylococcus aureus [4] = experiment: Antibacterial activity against methicillin-resistant Staphylococcus aureus ATCC 33591 assessed as MIC incubated for 12 hrs
# [5] = Selectivity index, HC50 for hemolytic activity in rabbit RBC to MIC for antibacterial activity against methicillin-resistant Staphylococcus aureus ATCC 33591; type: toxicity; details: rabbit red blood cells (RBC), read-out: Selectivity Index
# Klebsiella pneumoniae = experiment: Antibacterial activity against Klebsiella pneumoniae ATCC 700603 assessed as reduction in microbial growth after 24 hrs by broth dilution method; type: functional
# Staphylococcus aureus [6] = experiment: Antibacterial activity against Staphylococcus aureus ATCC 6538 assessed as zone of inhibition incubated for 12 hrs by disc diffusion method; type: functional
# Staphylococcus aureus [7] = experiment: Antibacterial activity against Staphylococcus aureus ATCC 6538 assessed as reduction in microbial growth after 24 hrs by broth dilution method; type: functional
# Staphylococcus aureus [8] = experiment: Antibacterial activity against Staphylococcus aureus assessed as bacterial growth inhibition incubated with 50% serum (unknown origin); type: functional, organism-based
# Staphylococcus aureus [9] = experiment: Antibacterial activity against Staphylococcus aureus incubated with 50% plasma (unknown origin) measured after 4 hrs; type: functional, organism-based
# Escherichia coli [10] = experiment: Bactericidal activity against Escherichia coli assessed as changes in cell morphology incubated for 3 hrs by SEM analysis; type: functional, organism-based
# Escherichia coli [11] = experiment: Antibacterial activity against Escherichia coli assessed as bacterial growth inhibition incubated with 50% serum (unknown origin); type: functional, organism-based
# Staphylococcus aureus [12] = experiment: Antibacterial activity against Staphylococcus aureus assessed as fold change of bacterial growth inhibition incubated with 50% plasma (unknown origin); type: functional
# Escherichia coli [13] = experiment: Antibacterial activity against Escherichia coli assessed as fold change of bacterial growth inhibition incubated with 50% plasma (unknown origin); type: functional
# L929 [14] = experiment: Cytotoxicity against mouse L929 cells assessed as reduction in cell viability at 1000 ug/ml incubated for 24 hrs by MTT assay; type: toxicity, cell-based; details: l929, 24 h, at 1000 µg/mL
# SGC-7901 [15] = experiment: Induction of apoptosis in human SGC-7901 cells assessed as apoptosis rate at 25 ug/ml incubated for 24 hrs by annexin V-FITC/propidium iodide staining based flow cytometric analysis (reference value: 7.44%); type: functional; details: dose 25 µg/ml
# Escherichia coli [16] = experiment: Antibacterial activity against Escherichia coli assessed as fold change of bacterial growth inhibition incubated with 50% blood (unknown origin); type: functional
# Escherichia coli [17] = experiment: Bactericidal activity against Escherichia coli at 4MIC measured after 1 hrs by time-kill dilution assay relative to control; type: functional
# Escherichia coli [18] = experiment: Bactericidal activity against Escherichia coli at 2MIC measured after 1 hrs by time-kill dilution assay relative to control; type: functional
# SGC-7901 [19] = experiment: Cytotoxicity against human SGC-7901 cells assessed as reduction in cell viability after 24 hrs by MTT assay; type: functional, cell-based; details: SGC-7901, 24 h
# Escherichia coli [20] = experiment: Antibiofilm activity against Escherichia coli at 320 ug/ml after 72 hrs by crystal violet staining based assay; type: functional; details: dose 320 µg/ml
# Escherichia coli [21] = experiment: Bactericidal activity against Escherichia coli measured after 7 hrs by time-kill dilution assay relative to control; type: functional, organism-based
# Staphylococcus aureus [22] = experiment: Antibiofilm activity against Staphylococcus aureus at 80 ug/ml after 24 hrs by crystal violet staining based assay; type: functional; details: dose 80 µg/ml
# L929 [23] = experiment: Cytotoxicity against mouse L929 cells assessed as reduction in cell viability at 15.6 ug/ml incubated for 24 hrs by MTT assay; type: toxicity, cell-based; details: l929, 24 h, dose 15.6 µg/ml
# L929 [24] = experiment: Cytotoxicity against mouse L929 cells assessed as reduction in cell viability at 31.5 to 125 ug/ml incubated for 24 hrs by MTT assay; type: toxicity, cell-based; details: l929, 24 h, at 31.5 to 125 µg/mL, dose 31.5-125 µg/ml
# Escherichia coli [25] = experiment: Antibiofilm activity against Escherichia coli at 160 ug/ml after 72 hrs by crystal violet staining based assay; type: functional; details: dose 160 µg/ml
# Staphylococcus aureus [26] = experiment: Antibiofilm activity against Staphylococcus aureus at 320 ug/ml after 24 hrs by crystal violet staining based assay; type: functional; details: dose 320 µg/ml
# Staphylococcus aureus [27] = experiment: Antibacterial activity against Staphylococcus aureus at sub-MIC measured treated over 16 serial passages after 24 hrs by resistance development assay; type: functional, organism-based
# Escherichia coli [28] = experiment: Antibiofilm activity against Escherichia coli at 40 ug/ml after 72 hrs by crystal violet staining based assay; type: functional; details: dose 40 µg/ml
# Escherichia coli [29] = experiment: Antibiofilm activity against Escherichia coli at 80 ug/ml after 72 hrs by crystal violet staining based assay; type: functional; details: dose 80 µg/ml
# Staphylococcus aureus [30] = experiment: Antibiofilm activity against Staphylococcus aureus at 160 ug/ml after 24 hrs by crystal violet staining based assay; type: functional; details: dose 160 µg/ml
# SGC-7901 [31] = experiment: Induction of apoptosis in human SGC-7901 cells assessed as apoptosis rate at 5 ug/ml incubated for 24 hrs by annexin V-FITC/propidium iodide staining based flow cytometric analysis (reference value: 7.44%); type: functional; details: dose 5 µg/ml
# Staphylococcus aureus [32] = experiment: Antibacterial activity against Staphylococcus aureus incubated with 50% plasma (unknown origin) measured after 8 hrs; type: functional
# Staphylococcus aureus [33] = experiment: Antibacterial activity against Staphylococcus aureus assessed as fold change of bacterial growth inhibition incubated with 50% blood (unknown origin); type: functional
# Staphylococcus aureus [34] = experiment: Bactericidal activity against Staphylococcus aureus assessed as changes in cell morphology incubated for 3 hrs by SEM analysis; type: functional, organism-based
# Escherichia coli [35] = experiment: Antibacterial activity against Escherichia coli at sub-MIC treated over 16 serial passages measured after 24 hrs by resistance development assay; type: functional, organism-based
# SGC-7901 [36] = experiment: Induction of apoptosis in human SGC-7901 cells assessed as apoptosis rate level at 50 ug/ml incubated for 24 hrs by annexin V-FITC/propidium iodide staining based flow cytometric analysis (reference value: 7.44%); type: functional; details: dose 50 µg/ml
# Escherichia coli [37] = experiment: Antibiofilm activity against Escherichia coli at 20 ug/ml after 72 hrs by crystal violet staining based assay; type: functional; details: dose 20 µg/ml
structure (smiles),measurement,setting,value
C#Cc1ccc(NC(=O)[C@@H](N)Cc2ccccc2)cc1,MIC,Escherichia coli [1],39 µg/mL
same,HC50 at 1 h,[2],> 1250 µg/mL
same,diameter of the inhibition zone (DIZ),Escherichia coli [3],10 mm
same,MIC,Staphylococcus aureus [4],10 µg/mL
same,selectivity ratio,[5],> 125
same,MIC,Klebsiella pneumoniae,39 µg/mL
same,diameter of the inhibition zone (DIZ),Staphylococcus aureus [6],13 mm
same,MIC,Staphylococcus aureus [7],10 µg/mL
CC(C)[C@H](N)C(=O)Nc1ccc(Cl)cc1,MIC,Escherichia coli [1],156 µg/mL
same,HC50 at 1 h,[2],> 1250 µg/mL
same,diameter of the inhibition zone (DIZ),Escherichia coli [3],10 mm
same,MIC,Staphylococcus aureus [4],78 µg/mL
same,selectivity ratio,[5],> 16
same,MIC,Klebsiella pneumoniae,156 µg/mL
same,diameter of the inhibition zone (DIZ),Staphylococcus aureus [6],10.9 mm
same,MIC,Staphylococcus aureus [7],78 µg/mL
CC(C)[C@H](N)C(=O)Nc1ccccc1,MIC,Escherichia coli [1],> 1250 µg/mL
same,MIC,Klebsiella pneumoniae,> 1250 µg/mL
same,MIC,Staphylococcus aureus [7],> 1250 µg/mL
CC(C)[C@H](N)C(=O)Nc1ccc(Br)cc1,MIC,Escherichia coli [1],39 µg/mL
same,HC50 at 1 h,[2],> 1250 µg/mL
same,diameter of the inhibition zone (DIZ),Escherichia coli [3],11.8 mm
same,MIC,Staphylococcus aureus [4],78 µg/mL
same,selectivity ratio,[5],> 32
same,MIC,Klebsiella pneumoniae,78 µg/mL
same,diameter of the inhibition zone (DIZ),Staphylococcus aureus [6],11.8 mm
same,MIC,Staphylococcus aureus [7],39 µg/mL
C#Cc1ccc(NC(=O)[C@@H](N)C(C)C)cc1,Activity,Staphylococcus aureus [8],inactive
same,Activity,Staphylococcus aureus [9],Active
same,Activity,Escherichia coli [10],Active
same,Activity,Escherichia coli [11],inactive
same,MIC,Escherichia coli [1],5 µg/mL
same,fold change (FC),Staphylococcus aureus [12],2
same,fold change (FC),Escherichia coli [13],2
same,Activity,L929 [14],70%
same,HC50 at 1 h,[2],891 µg/mL
same,Activity,SGC-7901 [15],11.46%
same,fold change (FC),Escherichia coli [16],4
same,Activity,Escherichia coli [17],0.4%
same,Activity,Escherichia coli [18],62.2%
same,IC50,SGC-7901 [19],70.8 µg/mL
same,diameter of the inhibition zone (DIZ),Escherichia coli [3],20 mm
same,MIC,Staphylococcus aureus [4],5 µg/mL
same,Activity,Escherichia coli [20],93.5%
same,selectivity ratio,[5],356
same,Activity,Escherichia coli [21],Active
same,Activity,Staphylococcus aureus [22],77.5%
same,MIC,Klebsiella pneumoniae,5 µg/mL
same,Activity,L929 [23],Non-Toxic
same,Activity,L929 [24],85%
same,Activity,Escherichia coli [25],81.5%
same,Activity,Staphylococcus aureus [26],91%
same,diameter of the inhibition zone (DIZ),Staphylococcus aureus [6],21.8 mm
same,MIC,Staphylococcus aureus [7],2.5 µg/mL
same,Activity,Staphylococcus aureus [27],inactive
same,Activity,Escherichia coli [28],66.2%
same,Activity,Escherichia coli [29],77.3%
same,Activity,Staphylococcus aureus [30],85.4%
same,Activity,SGC-7901 [31],9.71%
same,fold change (FC),Staphylococcus aureus [32],2
same,fold change (FC),Staphylococcus aureus [33],4
same,Activity,Staphylococcus aureus [34],Active
same,Activity,Escherichia coli [35],inactive
same,Activity,SGC-7901 [36],50.36%
same,Activity,Escherichia coli [37],47.5%
C[C@H]1COc2c(N3CCN(C)CC3)c(F)cc3c(=O)c(C(=O)O)cn1c23.C[C@H]1COc2c(N3CCN(C)CC3)c(F)cc3c(=O)c(C(=O)O)cn1c23.O [LEVOFLOXACIN],MIC,Escherichia coli [1],2.5 µg/mL
same,MIC,Staphylococcus aureus [4],1.25 µg/mL
same,MIC,Klebsiella pneumoniae,< 0.63 µg/mL
same,MIC,Staphylococcus aureus [7],1.25 µg/mL
CC(C)[C@H](N)C(=O)Nc1ccc(F)cc1,MIC,Escherichia coli [1],312 µg/mL
same,HC50 at 1 h,[2],> 1250 µg/mL
same,diameter of the inhibition zone (DIZ),Escherichia coli [3],6 mm
same,selectivity ratio,[5],> 4
same,MIC,Klebsiella pneumoniae,312 µg/mL
same,diameter of the inhibition zone (DIZ),Staphylococcus aureus [6],6 mm
same,MIC,Staphylococcus aureus [7],312 µg/mL
C#Cc1ccc(NC(=O)[C@@H](N)Cc2c[nH]c3ccccc23)cc1,MIC,Escherichia coli [1],156 µg/mL
same,HC50 at 1 h,[2],> 1250 µg/mL
same,diameter of the inhibition zone (DIZ),Escherichia coli [3],6.5 mm
same,MIC,Staphylococcus aureus [4],78 µg/mL
same,selectivity ratio,[5],> 16
same,MIC,Klebsiella pneumoniae,156 µg/mL
same,diameter of the inhibition zone (DIZ),Staphylococcus aureus [6],10 mm
same,MIC,Staphylococcus aureus [7],78 µg/mL
CC(C)C(NC(=O)[C@H](N)Cc1ccccc1)C(=O)O (some centres undefined),MIC,Escherichia coli [1],> 1250 µg/mL
same,diameter of the inhibition zone (DIZ),Escherichia coli [3],<6 mm
same,MIC,Klebsiella pneumoniae,> 1250 µg/mL
same,diameter of the inhibition zone (DIZ),Staphylococcus aureus [6],<6 mm
same,MIC,Staphylococcus aureus [7],> 1250 µg/mL
